{"source": "patent US7687252B2", "about": "“Protein crystal of human cytochrome P450 aromatase and uses thereof” (Hauptman-Woodward Medcial Research Institute, Inc., priority 2007, dated 2010)", "key": {"[1]": {"test_system": "MCF-7 cells", "assay": "Anti-proliferation assay in a MCF-7 cell line expressing P450arom (MTT)", "assay_type": "cell-based, human"}, "[2]": {"molecular_target": "T1, P450arom (Homo sapiens, UniProt P11511)", "T1 sequence (P11511 1-503)": "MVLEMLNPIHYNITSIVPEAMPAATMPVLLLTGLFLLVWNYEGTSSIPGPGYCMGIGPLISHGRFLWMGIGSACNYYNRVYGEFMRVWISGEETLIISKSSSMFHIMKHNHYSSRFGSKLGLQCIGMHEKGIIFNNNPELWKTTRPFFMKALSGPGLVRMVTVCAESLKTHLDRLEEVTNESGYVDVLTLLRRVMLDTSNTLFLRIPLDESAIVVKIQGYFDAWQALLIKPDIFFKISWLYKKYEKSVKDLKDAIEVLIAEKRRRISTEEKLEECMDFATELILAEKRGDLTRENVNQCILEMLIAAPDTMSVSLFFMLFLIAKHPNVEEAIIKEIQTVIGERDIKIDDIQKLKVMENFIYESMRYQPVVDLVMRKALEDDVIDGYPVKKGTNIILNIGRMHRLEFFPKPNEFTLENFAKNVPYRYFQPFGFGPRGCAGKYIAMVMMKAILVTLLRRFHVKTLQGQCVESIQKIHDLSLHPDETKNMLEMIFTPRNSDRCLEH", "parameters": "Crystallization and structural investigation of the full-length native P450arom; from tissue; host or cells: human term placenta (aromatase); liver (CPR, bovine or rat)", "details": "previously determined [51]; cited from earlier work"}, "[3]": {"molecular_target": "T1, P450arom", "assay": "Detergent screen: P450arom enzyme activity and time stability", "assay_type": "biochemical", "parameters": "Crystallization and structural investigation of the full-length native P450arom; from tissue; host or cells: human term placenta (aromatase); liver (CPR, bovine or rat)", "details": "detergent 1-3 mM, exchanged for Em on HA column"}, "[4]": {"molecular_target": "T1, P450arom", "assay": "Absorption spectrum (Soret band) of P450arom-ligand complexes", "parameters": "Crystallization and structural investigation of the full-length native P450arom; from tissue", "details": "absorption spectrum of the P450arom complex"}, "[5]": {"molecular_target": "T1, P450arom", "assay": "Inhibition of P450arom enzyme activity (3H-water release from [1β-3H, 4-14C] androstenedione, enzyme reconstituted with CPR)", "assay_type": "biochemical", "parameters": "Crystallization and structural investigation of the full-length native P450arom; from tissue; host or cells: human term placenta (aromatase); liver (CPR, bovine or rat)", "details": "P450arom 20-30 mg/ml, final inhibitor 0.5-1.0 mM, crystallization protocol"}, "[6]": {"molecular_target": "T2, Aromatase (Homo sapiens, UniProt P11511)", "T2 construct": "Crystallization and structural investigation of the full-length native P450arom; from tissue; host or cells: human term placenta (aromatase); liver (CPR, bovine or rat)", "T2 sequence (P11511 1-503)": "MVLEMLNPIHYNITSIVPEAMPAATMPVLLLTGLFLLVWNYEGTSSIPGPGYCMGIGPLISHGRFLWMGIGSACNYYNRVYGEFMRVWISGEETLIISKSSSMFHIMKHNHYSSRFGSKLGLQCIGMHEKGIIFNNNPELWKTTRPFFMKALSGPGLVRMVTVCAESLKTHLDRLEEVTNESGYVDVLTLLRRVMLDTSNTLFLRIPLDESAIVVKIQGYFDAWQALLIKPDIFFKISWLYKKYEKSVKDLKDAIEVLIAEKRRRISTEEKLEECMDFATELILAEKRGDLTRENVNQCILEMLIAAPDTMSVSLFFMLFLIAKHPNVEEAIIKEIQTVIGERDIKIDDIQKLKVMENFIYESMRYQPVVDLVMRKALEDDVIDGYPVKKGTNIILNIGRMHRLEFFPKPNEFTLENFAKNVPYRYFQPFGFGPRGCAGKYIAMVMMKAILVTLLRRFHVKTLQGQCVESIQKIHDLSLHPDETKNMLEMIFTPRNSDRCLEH", "assay": "Assay of enzyme activity (specific activity) of purified aromatase", "assay_type": "biochemical"}, "[7]": {"test_system": "Aromatase", "assay": "Assay of enzyme activity (specific activity) of purified aromatase", "assay_type": "biochemical, human", "details": "in BNM after detergent exchange"}}, "note": "“Also recorded” adds a separate entry of the source."}
{"molecule": "4-hydroxytamoxifen", "values": [{"measurement": "A-stimulated growth of the MCF-7 cells", "setting": "[1]; androstenedione (A) stimulated", "result": "decreased"}]}
{"molecule": "CCCCCCCCCCCCO[C@@H]1O[C@H](CO)[C@@H](O[C@H]2O[C@H](CO)[C@@H](O)[C@H](O)[C@H]2O)[C@H](O)[C@H]1O", "note": "[BDM, n-dodecyl-β-D-maltopyranoside]", "values": [{"measurement": "effect of detergent on P450arom activity", "setting": "[2]", "result": "maintained P450arom activity for weeks at 4 °C"}]}
{"molecule": "CCCCCCCCCO[C@@H]1O[C@H](CO)[C@@H](O[C@H]2O[C@H](CO)[C@@H](O)[C@H](O)[C@H]2O)[C@H](O)[C@H]1O", "note": "[BNM, n-nonyl-β-D-maltopyranoside]", "values": [{"measurement": "effect of detergent on enzyme activity and time stability", "setting": "[3]", "result": "maintained enzyme activity and time stability at least as well as BDM; also recorded: maintained the full P450arom activity"}]}
{"molecule": "CCCCCCCCO[C@@H]1O[C@H](CO)[C@@H](O)[C@H](O)[C@H]1O", "note": "[BOG, n-octyl-β-D-glucopyranoside]", "values": [{"measurement": "effect of detergent on P450arom activity", "setting": "[2]", "result": "destroy P450arom activity rapidly"}]}
{"molecule": "CCCCCCCCO[C@@H]1O[C@H](CO)[C@@H](O[C@H]2O[C@H](CO)[C@@H](O)[C@H](O)[C@H]2O)[C@H](O)[C@H]1O", "note": "[BOM, n-octyl-β-D-maltopyranoside]", "values": [{"measurement": "effect of detergent on enzyme activity and time stability", "setting": "[3]", "result": "maintained enzyme activity and time stability at least as well as BDM"}]}
{"molecule": "CC(C)(C#N)c1cc(Cn2cncn2)cc(C(C)(C)C#N)c1", "note": "[anastrozole]", "values": [{"measurement": "Soret band", "setting": "[4]", "result": 421, "unit": "nm"}]}
{"molecule": "C[C@]12CCC(=O)C=C1CC[C@@H]1[C@@H]2CC[C@]2(C)C(=O)CC[C@@H]12", "note": "[androstenedione]", "values": [{"measurement": "growth of the MCF-7 cells", "setting": "[1]; substrate steroid alone", "result": "stimulates the growth of the MCF-7 cells in a concentration-dependent manner"}, {"measurement": "Soret band", "setting": "[4]", "result": 394, "unit": "nm"}]}
{"molecule": "N#Cc1ccc(C(c2ccc(C#N)cc2)n2cncn2)cc1", "note": "[letrozole]", "values": [{"measurement": "DHEA-stimulated cell growth", "setting": "[1]; DHEA stimulated MCF-7 cells", "result": "inhibits the growth of DHEA-stimulated cell growth"}, {"measurement": "Soret band", "setting": "[4]", "result": 421, "unit": "nm"}, {"measurement": "inhibition of P450arom", "setting": "[5]", "result": "~100", "unit": "%"}]}
{"molecule": "Aromatase: human cytochrome P450 aromatase purified from term placenta, SEQ ID NO:1 (protein, listed as Homo sapiens) MVLEMLNPIHYNITSIVPEAMPAATMPVLLLTGLFLLVWNYEGTSSIPGPGYCMGIGPLISHGRFLWMGIGSACNYYNRVYGEFMRVWISGEETLIISKSSSMFHIMKHNHYSSRFGSKLGLQCIGMHEKGIIFNNNPELWKTTRPFFMKALSGPGLVRMVTVCAESLKTHLDRLEEVTNESGYVDVLTLLRRVMLDTSNTLFLRIPLDESAIVVKIQGYFDAWQALLIKPDIFFKISWLYKKYEKSVKDLKDAIEVLIAEKRRRISTEEKLEECMDFATELILAEKRGDLTRENVNQCILEMLIAAPDTMSVSLFFMLFLIAKHPNVEEAIIKEIQTVIGERDIKIDDIQKLKVMENFIYESMRYQPVVDLVMRKALEDDVIDGYPVKKGTNIILNIGRMHRLEFFPKPNEFTLENFAKNVPYRYFQPFGFGPRGCAGKYIAMVMMKAILVTLLRRFHVKTLQGQCVESIQKIHDLSLHPDETKNMLEMIFTPRNSDRCLEH", "values": [{"measurement": "turnover number", "setting": "[6]; calculated", "result": "~6", "unit": "min⁻¹"}, {"measurement": "specific activity retained", "setting": "[6]; in detergents BNM and BDM, 4° C. for weeks", "result": "80-90%"}, {"measurement": "specific activity of the purified enzyme", "setting": "[6]; typical / over a large number of purifications, androstenedione as substrate", "result": "20 to 100", "unit": "nmol/min/mg"}, {"measurement": "specific activity", "setting": "[6]; with Em as the detergent", "result": "50 to 100", "unit": "nmol/min/mg"}, {"measurement": "specific activity", "setting": "[7]", "result": "10 to 50", "unit": "nmol/min/mg"}]}
{"molecule": "Del38arom: amino-terminal trans-membrane domain deleted P450arom, bacterial expression clone (protein, UniProt P11511 39-503, looked up, fragment) WNYEGTSSIPGPGYCMGIGPLISHGRFLWMGIGSACNYYNRVYGEFMRVWISGEETLIISKSSSMFHIMKHNHYSSRFGSKLGLQCIGMHEKGIIFNNNPELWKTTRPFFMKALSGPGLVRMVTVCAESLKTHLDRLEEVTNESGYVDVLTLLRRVMLDTSNTLFLRIPLDESAIVVKIQGYFDAWQALLIKPDIFFKISWLYKKYEKSVKDLKDAIEVLIAEKRRRISTEEKLEECMDFATELILAEKRGDLTRENVNQCILEMLIAAPDTMSVSLFFMLFLIAKHPNVEEAIIKEIQTVIGERDIKIDDIQKLKVMENFIYESMRYQPVVDLVMRKALEDDVIDGYPVKKGTNIILNIGRMHRLEFFPKPNEFTLENFAKNVPYRYFQPFGFGPRGCAGKYIAMVMMKAILVTLLRRFHVKTLQGQCVESIQKIHDLSLHPDETKNMLEMIFTPRNSDRCLEH", "values": [{"measurement": "specific activity", "setting": "[7]", "result": "< 1", "unit": "nmol/min/mg"}]}
